The values that follow come from patent US10947252B2, “Inhibitors of KEAP1-Nrf2 protein-protein interaction” (Janssen Pharmaceutica NV, priority 2018, dated 2021).

Assay [1] concerns Glo-Response ARE-luc2P HEK293 cell line. Kind of assay: ARE luciferase reporter cell-based assay.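 Also: luciferase signal tracks Nrf2 activation of the ARE once compounds disrupt KEAP1-Nrf2 binding, read with One-Glo reagent, DMSO serving as low control.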 Conditions: Homo sapiens, HEK293, 24 h, average of results obtained.
The target in assay [2] is Kelch domain of human KEAP1 (321-624 aa) (Homo sapiens (Human), UniProt Q14145). Kind of assay: KEAP1 KELCH ThermoFluor binding assay.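 Also: Ligand-induced melting temperature shift of E. coli-expressed KEAP1 Kelch protein, Kd estimated from concentration-response curves of ΔTm.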 Particulars: KEAP Kelch […], 1,8-ANS, pH 7.0, average of results obtained, read-out: Tf Kd.
Kelch domain of human KEAP1 (321-624 aa), sequence (Q14145 321-624): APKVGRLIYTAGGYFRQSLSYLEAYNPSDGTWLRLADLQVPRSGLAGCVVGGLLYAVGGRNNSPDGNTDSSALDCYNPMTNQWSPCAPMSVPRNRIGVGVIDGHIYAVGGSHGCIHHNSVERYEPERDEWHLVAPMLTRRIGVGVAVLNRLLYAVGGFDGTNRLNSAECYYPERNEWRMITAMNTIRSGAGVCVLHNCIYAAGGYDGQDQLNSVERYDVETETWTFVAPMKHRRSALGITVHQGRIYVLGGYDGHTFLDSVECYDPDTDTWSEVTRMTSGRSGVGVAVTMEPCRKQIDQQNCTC

SMILES strings stand for the structures.

Regarding `Cc1cnc2c(c1)S(=O)(=O)N(Cc1nc(C(CC(=O)O)c3ccn4c(C(F)(F)F)nnc4c3C)ccc1C)C[C@H]1CCCCN21` (stereo in doubt) [Example 490, 3-(8-Methyl-3-(trifluoromethyl)-[1,2,4]triazolo[4,3-a]pyridin-7-yl)-3-(5-methyl-6-(((*R)-3-methyl-5,5-dioxido-7,7a,8,9,10,11-hexahydro-6H-dipyrido[2,1-d:2′,3′-f][1,2,5]thiadiazepin-6-yl)methyl)pyridin-2-yl)propanoic Acid], a half-maximal response in assay [1] (EC50) required 5.85 nM. The Kd (commonly the free concentration of one partner at which half of the binding sites on the other are occupied at equilibrium, for simple one-to-one binding) in assay [2] is below 1 nM.

Consider `Cc1ccc([C@H](c2ccn3c(C(F)F)nnc3c2C)C(C)(C)C(=O)O)nc1CN1CC2(CCOCC2)Oc2nc(OCCN3CCCCC3)c(C)cc2S1(=O)=O` (single isomer, unassigned) [Example 355, (*R)-3-(3-(Difluoromethyl)-8-methyl-[1,2,4]triazolo[4,3-a]pyridin-7-yl)-2,2-dimethyl-3-(5-methyl-6-((8′-methyl-1′,1′-dioxido-7′-(2-(piperidin-1-yl)ethoxy)-2,3,5,6-tetrahydrospiro[pyran-4,4′-pyrido[2,3-b][1,4,5]oxathiazepin]-2′(3′H)-yl)methyl)pyridin-2-yl)propanoic Acid], for which the EC50 (commonly the concentration at which the effect is half-maximal) in assay [1] was found to be 1140 nM. Also, the Kd in assay [2] was determined as 3070 nM.

In turn, `Cc1ccc([C@H](c2ccn3c(C(F)(F)F)nnc3c2)C(C)(C)C(=O)O)cc1CN1CC2(CCOCC2)Oc2ncccc2S1(=O)=O` (single isomer, unassigned) [Example 321, (*R)-3-(3-((1′,1′-Dioxido-2,3,5,6-tetrahydrospiro[pyran-4,4′-pyrido[2,3-b][1,4,5]oxathiazepin]-2′(3′H)-yl)methyl)-4-methylphenyl)-2,2-dimethyl-3-(3-(trifluoromethyl)-[1,2,4]triazolo[4,3-a]pyridin-7-yl)propanoic Acid] displayed an EC50 in assay [1] of 22 nM. In addition, the Kd in assay [2] is below 1 nM.

With `Cc1ccc([C@@H](CC(=O)O)c2ccn3c(C(F)(F)F)nnc3c2C)cc1CN1C[C@@H]2CN(C)CCN2c2ncccc2S1(=O)=O` (single isomer, unassigned) [Example 179, (*R)-3-(4-Methyl-3-(((*S)-9-methyl-5,5-dioxido-7,7a,8,9,10,11-hexahydro-6H-pyrazino[2,1-d]pyrido[2,3-f][1,2,5]thiadiazepin-6-yl)methyl)phenyl)-3-(8-methyl-3-(trifluoromethyl)-[1,2,4]triazolo[4,3-a]pyridin-7-yl)propanoic Acid], the EC50 in assay [1] was determined as 2040 nM. For the same molecule, the Kd in assay [2] turned out to be 58 nM.

`Cc1ccc([C@@H](CC(=O)O)c2ccn3c(C(F)(F)F)nnc3c2)cc1CN1C[C@@H]2CCCN2c2ncccc2S1(=O)=O` (single isomer, unassigned) [Example 255, (*R)-3-(3-(((S)-5,5-Dioxido-7a,8,9,10-tetrahydropyrido[2,3-f]pyrrolo[2,1-d][1,2,5]thiadiazepin-6(7H)-yl)methyl)-4-methylphenyl)-3-(3-(trifluoromethyl)-[1,2,4]triazolo[4,3-a]pyridin-7-yl)propanoic Acid] gave an EC50 in assay [1] of 922 nM. Also, in assay [2], the Kd was below 1 nM.

Molecule `Cc1cnc2c(c1)S(=O)(=O)N(Cc1cc(C(c3ccc4c(nnn4C4CC4)c3C)C(C)(C)C(=O)O)cnc1C)CC1(CCOCC1)O2` (racemic) [Example 227, (R/S)-3-(1-Cyclopropyl-4-methyl-1H-benzo[d][1,2,3]triazol-5-yl)-2,2-dimethyl-3-(6-methyl-5-((8′-methyl-1′,1′-dioxido-2,3,5,6-tetrahydrospiro[pyran-4,4′-pyrido[2,3-b][1,4,5]oxathiazepin]-2′(3′H)-yl)methyl)pyridin-3-yl)propanoic Acid] displayed an EC50 in assay [1] of 22 nM. Besides, in assay [2], the Kd is below 1 nM.

`Cc1ccc(C(CC(=O)O)c2ccn3c(C(F)(F)F)nnc3c2C)nc1CN1C[C@@H]2CCCCN2c2ncc(F)cc2S1(=O)=O` (stereo in doubt) [Example 496, 3-(6-(((*S)-3-Fluoro-5,5-dioxido-7,7a,8,9,10,11-hexahydro-6H-dipyrido[2,1-d:2′,3′-f][1,2,5]thiadiazepin-6-yl)methyl)-5-methylpyridin-2-yl)-3-(8-methyl-3-(trifluoromethyl)-[1,2,4]triazolo[4,3-a]pyridin-7-yl)propanoic Acid] showed an EC50 in assay [1] of 7.65 nM. The Kd in assay [2] is below 1 nM.

`Cc1ccc([C@@H](CC(=O)O)c2ccc3c(nnn3CC3CC3)c2C)cc1CN1C[C@]2(C)CCCN2c2ncccc2S1(=O)=O` (relative stereo) [Example 11, 3-(1-(Cyclopropylmethyl)-4-methyl-1H-benzo[d][1,2,3]triazol-5-yl)-3-(4-methyl-3-(((*S)-7a-methyl-5,5-dioxido-7a,8,9,10-tetrahydropyrido[2,3-f]pyrrolo[2,1-d][1,2,5]thiadiazepin-6(7H)-yl)methyl)phenyl)propanoic Acid]: a half-maximal effect in assay [1] (EC50) was put at 4.2 nM. Besides, the Kd in assay [2] came out at 0.024 nM.

For the molecule `CCn1nnc2c(C)c([C@H](CC(=O)O)c3ccc(C)c(CN4C[C@@H]5CCCN5c5ncccc5S4(=O)=O)c3)ccc21` (single isomer, unassigned) [Example 157, (*R)-3-(3-(((S)-5,5-Dioxido-7a,8,9,10-tetrahydropyrido[2,3-f]pyrrolo[2,1-d][1,2,5]thiadiazepin-6(7H)-yl)methyl)-4-methylphenyl)-3-(1-ethyl-4-methyl-1H-benzo[d][1,2,3]triazol-5-yl)propanoic Acid], the EC50 in assay [1] was found to be 62 nM. In addition, the Kd in assay [2] was around 3.2 nM.

Take `Cc1ccc([C@H](c2ccn3c(C(F)(F)F)nnc3c2C)C(C)(C)C(=O)O)nc1CN1CC2(CCOCC2)Oc2ncccc2S1(=O)=O` (single isomer, unassigned) [Example 39, (*R)-3-(6-((1′,1′-Dioxido-2,3,5,6-tetrahydrospiro[pyran-4,4′-pyrido[2,3-b][1,4,5]oxathiazepin]-2′(3′H)-yl)methyl)-5-methylpyridin-2-yl)-2,2-dimethyl-3-(8-methyl-3-(trifluoromethyl)-[1,2,4]triazolo[4,3-a]pyridin-7-yl)propanoic Acid]: the EC50 in assay [1] stood at 1260 nM. In addition, the Kd in assay [2] was found to be 4250 nM.

On to `CCn1nnc2c(C)c([C@@H](CC(=O)O)c3ccc(C)c(CN4C[C@H]5CCCCN5c5ncccc5S4(=O)=O)n3)ccc21` (single isomer, unassigned) [Example 306, (*R)-3-(6-(((*R)-5,5-Dioxido-7,7a,8,9,10,11-hexahydro-6H-dipyrido[2,1-d:2′,3′-f][1,2,5]thiadiazepin-6-yl)methyl)-5-methylpyridin-2-yl)-3-(1-ethyl-4-methyl-1H-benzo[d][1,2,3]triazol-5-yl)propanoic Acid], for which the response in assay [1] was half-maximal at 9.4 nM (EC50). Moreover, the Kd in assay [2] is below 1 nM.

Turning to `Cc1ccc([C@@H](CC(=O)O)c2ccc3c(nnn3C3CC3)c2C)cc1CN1CC2(CC2)N(C)c2ncccc2S1(=O)=O` (single isomer, unassigned) [Example 226, (*R)-3-(1-Cyclopropyl-4-methyl-1H-benzo[d][1,2,3]triazol-5-yl)-3-(4-methyl-3-((5′-methyl-1′,1′-dioxido-5′H-spiro[cyclopropane-1,4′-pyrido[2,3-f][1,2,5]thiadiazepin]-2′(3′H)-yl)methyl)phenyl)propanoic Acid], in assay [1], the response was half-maximal at 160 nM (EC50). Besides, the Kd in assay [2] was 6 nM.

In turn, `CC[C@@H]1CN(Cc2cc([C@H](CC(=O)O)c3cc(OC(F)F)c4c(c3)nnn4C)ccc2C)S(=O)(=O)c2cccnc2O1` (single isomer, unassigned) [Example 250, (*S)-3-(7-(Difluoromethoxy)-1-methyl-1H-benzo[d][1,2,3]triazol-5-yl)-3-(3-(((R)-4-ethyl-1,1-dioxido-3,4-dihydro-2H-pyrido[2,3-b][1,4,5]oxathiazepin-2-yl)methyl)-4-methylphenyl)propanoic Acid] yielded an EC50 in assay [1] of 32.8 nM. In addition, the Kd in assay [2] is below 1 nM.

The molecule `Cc1ccc([C@H](c2ccn3c(C(F)(F)F)nnc3c2C)C(C)(C)C(=O)O)cc1CN1CC2(CCOCC2)Oc2nc(N[C@H](C)C(C)(C)O)c(C)cc2S1(=O)=O` (single isomer, unassigned) [Example 124, (*R)-3-(3-((7′-(((R)-3-Hydroxy-3-methylbutan-2-yl)amino)-8′-methyl-1′,1′-dioxido-2,3,5,6-tetrahydrospiro[pyran-4,4′-pyrido[2,3-b][1,4,5]oxathiazepin]-2′(3′H)-yl)methyl)-4-methylphenyl)-2,2-dimethyl-3-(8-methyl-3-(trifluoromethyl)-[1,2,4]triazolo[4,3-a]pyridin-7-yl)propanoic Acid] gave an EC50 in assay [1] of 28.8 nM. Also, the Kd in assay [2] was below 1 nM.

Regarding `Cc1ccc(C(CC(=O)O)c2ccn3c(C(F)F)nnc3c2C)cc1CN1CC2(COC2)Oc2ccccc2S1(=O)=O` (stereo not shown) [Example 466, 3-(3-(Difluoromethyl)-8-methyl-[1,2,4]triazolo[4,3-a]pyridin-7-yl)-3-(3-((1,1-dioxidospiro[benzo[b][1,4,5]oxathiazepine-4,3′-oxetan]-2(3H)-yl)methyl)-4-methylphenyl)propanoic Acid], in assay [1], the EC50 came out at 124 nM. For the same molecule, the Kd in assay [2] is below 1 nM.

Consider `Cc1ccc([C@@H](CC(=O)O)c2ccn3c(C(F)F)nnc3c2C)cc1CN1C[C@H]2CCCCN2c2ncc(C#N)cc2S1(=O)=O` (single isomer, unassigned) [Example 30, (*R)-3-(3-(((*R)-3-Cyano-5,5-dioxido-7,7a,8,9,10,11-hexahydro-6H-dipyrido[2,1-d:2′,3′-f][1,2,5]thiadiazepin-6-yl)methyl)-4-methylphenyl)-3-(3-(difluoromethyl)-8-methyl-[1,2,4]triazolo[4,3-a]pyridin-7-yl)propanoic Acid], for which the EC50 in assay [1] turned out to be 73.7 nM. Moreover, the Kd in assay [2] is below 1 nM.

On to `Cc1ccc([C@@H](CC(=O)O)c2ccn3c(C(F)(F)F)nnc3c2C)cc1CN1C[C@@H]2CCC(F)(F)CN2c2ncccc2S1(=O)=O` (single isomer, unassigned) [Example 455, (*R)-3-(3-(((*S)-10,10-Difluoro-5,5-dioxido-7,7a,8,9,10,11-hexahydro-6H-dipyrido[2,1-d:2′,3′-f][1,2,5]thiadiazepin-6-yl)methyl)-4-methylphenyl)-3-(8-methyl-3-(trifluoromethyl)-[1,2,4]triazolo[4,3-a]pyridin-7-yl)propanoic Acid], for which the EC50 in assay [1] was 798 nM. In addition, the Kd in assay [2] was below 1 nM.
